# Experimental data as given in patent EP2878292A2, “Application of cosmetic compositions for the inactivation and/or elimination of skin mites” (Henkel AG & Co. KGaA, priority 2013, dated 2015).
# Test system: Haustaubmilben
# Type: in vivo
# Experimental: Die zu testende Substanz wurde mit Wasser auf die vorgesehene Einsatzkonzentration verdünnt (s.u.). Haustaubmilben, die aufgrund ihrer großen Ähnlichkeit als Vergleich zu Haarbalgmilben (Demodex) verwendet werden, wurden aus ihrem Futter isoliert und auf 1,5 cm x 1,5 cm große Filterpapierstücke übertragen. Etwa 100 Milben je Ansatz wurden mit 50 µl der zu testenden Substanzen in den vorhergesehenen Verdünnungen betropft. Die überschüssige Flüssigkeit wurde nach 10 Sekunden abgesaugt. Die noch feuchten Filterpapiere mit den Milben wurden nach der Behandlung in eine Petrischale gebracht, die mit einem Deckel und einer Umrandung mit Paraffin verschlossen wurden, um sicherzustellen, dass evtl. überlebende Milben nicht entweichen können. Die Milben können nach Beginn einer Behandlung - gleichgültig mit welchem Mittel - unbeweglich werden, sich jedoch später wieder erholen und ihre Beweglichkeit zumindest für kurze Zeit wiedererlangen. Andererseits ist es auch möglich, dass Milben in den ersten Stunden nach einer Behandlung noch vital erscheinen, jedoch bereits so stark geschädigt sind, dass sie innerhalb eines Tages bis zu 2-3 Tagen sterben. Daher wurden die Petrischalen für einen Tag aufbewahrt, und die Milben dann erst auf ihre Vitalität bewertet.
# Die Anzahl der toten und lebenden Milben wurde bestimmt und in % der Sterberate umgerechnet.
# Die Versuche wurden zweifach durchgeführt. […]
smiles,measurement,setting,value
"CCCCCCCCC(O)CO (centres unmarked) [Symclariol, 1,2-Decanediol]",Inaktivierung bzw. Eliminierung von Milben,conclusion in words drawn from the test at 2%,wirksam
same,Sterberate (Mittelwert),"house dust mite, in vivo, topical, 24 h","10,9%"
